# Activity calls are given as the source filed them. The rule behind the calls is not given here.
# Tests used:
# Assay type in all cases: functional, cell-based
# Toll-like receptor 8 = target: T1, Toll-like receptor 8 (Homo sapiens, UniProt Q9NR97); assay: Agonist activity at human TLR8 expressed in HEK293 cells assessed as induction of NF-kappaB activity by measuring extracellular secreted alkaline phosphatase by HEK-blue reporter gene assay
# T1 sequence (Q9NR97 whole entry): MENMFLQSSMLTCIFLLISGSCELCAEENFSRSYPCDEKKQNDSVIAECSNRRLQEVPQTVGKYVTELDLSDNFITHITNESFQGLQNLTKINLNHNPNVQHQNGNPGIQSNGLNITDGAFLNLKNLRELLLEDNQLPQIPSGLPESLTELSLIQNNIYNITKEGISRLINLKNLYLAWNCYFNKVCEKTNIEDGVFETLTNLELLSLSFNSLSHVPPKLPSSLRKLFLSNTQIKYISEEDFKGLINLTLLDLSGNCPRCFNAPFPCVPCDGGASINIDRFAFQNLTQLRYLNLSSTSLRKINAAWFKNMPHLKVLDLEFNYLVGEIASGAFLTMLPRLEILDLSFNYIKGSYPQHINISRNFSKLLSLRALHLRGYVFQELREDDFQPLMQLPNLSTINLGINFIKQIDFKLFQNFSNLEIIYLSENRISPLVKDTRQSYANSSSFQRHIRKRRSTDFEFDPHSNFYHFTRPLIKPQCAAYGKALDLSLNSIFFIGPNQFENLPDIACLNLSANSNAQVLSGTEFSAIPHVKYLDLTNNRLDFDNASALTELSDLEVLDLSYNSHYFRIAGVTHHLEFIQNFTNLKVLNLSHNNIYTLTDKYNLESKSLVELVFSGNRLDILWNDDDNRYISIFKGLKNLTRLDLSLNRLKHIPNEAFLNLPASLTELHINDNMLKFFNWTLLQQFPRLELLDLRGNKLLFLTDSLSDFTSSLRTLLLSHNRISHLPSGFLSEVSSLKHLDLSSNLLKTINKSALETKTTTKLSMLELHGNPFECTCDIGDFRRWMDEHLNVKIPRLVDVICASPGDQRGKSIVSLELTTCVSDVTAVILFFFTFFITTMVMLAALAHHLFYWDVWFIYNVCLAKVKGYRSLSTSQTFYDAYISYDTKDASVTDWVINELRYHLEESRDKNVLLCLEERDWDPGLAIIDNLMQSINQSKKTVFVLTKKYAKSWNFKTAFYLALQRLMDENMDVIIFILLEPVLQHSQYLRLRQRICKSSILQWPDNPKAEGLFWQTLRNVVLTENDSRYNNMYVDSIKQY
# [1] = target: T2, Toll-like receptor 9 (Homo sapiens) (UniProt Q9NR96); assay: Agonist activity at human TLR9 expressed in HEK293 cells assessed as induction of NF-kappaB activity by measuring extracellular secreted alkaline phosphatase up to 250 uM by HEK-blue reporter gene assay
# T2 sequence (whole entry): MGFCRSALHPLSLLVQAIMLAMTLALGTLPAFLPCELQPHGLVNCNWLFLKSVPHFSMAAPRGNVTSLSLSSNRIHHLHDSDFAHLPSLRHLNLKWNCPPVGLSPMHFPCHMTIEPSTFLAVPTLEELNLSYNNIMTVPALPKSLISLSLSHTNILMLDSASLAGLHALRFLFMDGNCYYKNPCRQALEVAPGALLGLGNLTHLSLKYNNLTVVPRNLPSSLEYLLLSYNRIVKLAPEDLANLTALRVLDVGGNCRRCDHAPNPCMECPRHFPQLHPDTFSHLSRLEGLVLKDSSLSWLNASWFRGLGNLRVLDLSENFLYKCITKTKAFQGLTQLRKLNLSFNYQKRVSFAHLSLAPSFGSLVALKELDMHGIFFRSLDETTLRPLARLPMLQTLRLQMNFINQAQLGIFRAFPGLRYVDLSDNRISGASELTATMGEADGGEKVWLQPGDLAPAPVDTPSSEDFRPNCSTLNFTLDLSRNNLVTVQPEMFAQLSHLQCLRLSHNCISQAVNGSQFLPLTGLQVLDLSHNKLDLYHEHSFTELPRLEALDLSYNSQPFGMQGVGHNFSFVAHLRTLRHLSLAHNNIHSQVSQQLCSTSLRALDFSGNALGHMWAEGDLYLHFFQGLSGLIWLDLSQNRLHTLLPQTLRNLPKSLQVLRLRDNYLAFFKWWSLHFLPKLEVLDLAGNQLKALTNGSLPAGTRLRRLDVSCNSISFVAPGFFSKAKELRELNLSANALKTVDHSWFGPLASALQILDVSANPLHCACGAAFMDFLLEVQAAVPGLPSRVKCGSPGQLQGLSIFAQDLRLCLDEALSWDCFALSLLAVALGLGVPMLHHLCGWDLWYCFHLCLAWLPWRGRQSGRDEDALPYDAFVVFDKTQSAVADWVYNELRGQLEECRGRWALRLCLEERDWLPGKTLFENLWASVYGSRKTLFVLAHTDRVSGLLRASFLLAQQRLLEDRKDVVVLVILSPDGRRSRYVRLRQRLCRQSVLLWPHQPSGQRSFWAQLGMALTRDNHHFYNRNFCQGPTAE
# [2] = target: T3, Toll-like receptor 8 (Homo sapiens) (UniProt Q9NR97); assay: Agonist activity at human TLR8 expressed in HEK293 cells assessed as induction of NF-kappaB activity by measuring extracellular secreted alkaline phosphatase up to 250 uM by HEK-blue reporter gene assay
# T3 sequence (whole entry): T1 sequence (Q9NR97 whole entry)
# [3] = target: T4, Toll-like receptor 7 (Homo sapiens) (UniProt Q9NYK1); assay: Agonist activity at human TLR7 expressed in HEK293 cells assessed as induction of NF-kappaB activity by measuring extracellular secreted alkaline phosphatase up to 250 uM by HEK-blue reporter gene assay
# T4 sequence (whole entry): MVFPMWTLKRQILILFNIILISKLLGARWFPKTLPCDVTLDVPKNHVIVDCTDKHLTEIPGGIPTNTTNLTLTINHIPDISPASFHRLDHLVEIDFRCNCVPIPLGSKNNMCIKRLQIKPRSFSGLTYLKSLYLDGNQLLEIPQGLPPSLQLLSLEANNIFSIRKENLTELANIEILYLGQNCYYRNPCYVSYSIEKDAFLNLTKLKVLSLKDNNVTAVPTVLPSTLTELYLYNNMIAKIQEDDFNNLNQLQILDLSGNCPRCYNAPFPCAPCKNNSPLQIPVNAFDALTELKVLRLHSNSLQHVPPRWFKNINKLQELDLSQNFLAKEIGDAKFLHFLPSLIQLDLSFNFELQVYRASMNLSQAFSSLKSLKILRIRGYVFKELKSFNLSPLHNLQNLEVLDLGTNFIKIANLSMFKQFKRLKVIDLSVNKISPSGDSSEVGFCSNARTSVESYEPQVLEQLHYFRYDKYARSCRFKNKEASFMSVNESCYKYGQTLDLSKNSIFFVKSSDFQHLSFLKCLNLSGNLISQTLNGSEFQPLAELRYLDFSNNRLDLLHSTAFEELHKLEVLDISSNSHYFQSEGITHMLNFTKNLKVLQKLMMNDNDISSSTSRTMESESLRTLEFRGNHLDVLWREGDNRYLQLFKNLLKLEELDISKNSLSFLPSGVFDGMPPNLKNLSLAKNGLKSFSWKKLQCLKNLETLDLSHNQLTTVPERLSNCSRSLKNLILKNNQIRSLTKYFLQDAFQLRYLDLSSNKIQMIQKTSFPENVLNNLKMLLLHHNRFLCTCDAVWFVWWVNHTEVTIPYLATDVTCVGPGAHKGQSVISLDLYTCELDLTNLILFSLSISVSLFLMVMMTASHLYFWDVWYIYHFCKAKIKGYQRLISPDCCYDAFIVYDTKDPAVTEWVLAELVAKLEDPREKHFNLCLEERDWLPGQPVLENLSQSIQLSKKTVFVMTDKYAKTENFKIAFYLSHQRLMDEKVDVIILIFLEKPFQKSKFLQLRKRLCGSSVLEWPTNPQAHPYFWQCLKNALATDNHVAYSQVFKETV
# [4] = target: Toll-like receptor 5 (Homo sapiens) (UniProt O60602); assay: Agonist activity at human TLR5 expressed in HEK293 cells assessed as induction of NF-kappaB activity by measuring extracellular secreted alkaline phosphatase up to 250 uM by HEK-blue reporter gene assay
# [5] = target: Toll-like receptor 4 (Homo sapiens) (UniProt O00206); assay: Agonist activity at human TLR4 expressed in HEK293 cells assessed as induction of NF-kappaB activity by measuring extracellular secreted alkaline phosphatase up to 250 uM by HEK-blue reporter gene assay
# [6] = target: Toll-like receptor 3 (Homo sapiens) (UniProt O15455); assay: Agonist activity at human TLR3 expressed in HEK293 cells assessed as induction of NF-kappaB activity by measuring extracellular secreted alkaline phosphatase up to 250 uM by HEK-blue reporter gene assay
# Sequence of Toll-like receptor 3 (Homo sapiens) (O15455 whole entry): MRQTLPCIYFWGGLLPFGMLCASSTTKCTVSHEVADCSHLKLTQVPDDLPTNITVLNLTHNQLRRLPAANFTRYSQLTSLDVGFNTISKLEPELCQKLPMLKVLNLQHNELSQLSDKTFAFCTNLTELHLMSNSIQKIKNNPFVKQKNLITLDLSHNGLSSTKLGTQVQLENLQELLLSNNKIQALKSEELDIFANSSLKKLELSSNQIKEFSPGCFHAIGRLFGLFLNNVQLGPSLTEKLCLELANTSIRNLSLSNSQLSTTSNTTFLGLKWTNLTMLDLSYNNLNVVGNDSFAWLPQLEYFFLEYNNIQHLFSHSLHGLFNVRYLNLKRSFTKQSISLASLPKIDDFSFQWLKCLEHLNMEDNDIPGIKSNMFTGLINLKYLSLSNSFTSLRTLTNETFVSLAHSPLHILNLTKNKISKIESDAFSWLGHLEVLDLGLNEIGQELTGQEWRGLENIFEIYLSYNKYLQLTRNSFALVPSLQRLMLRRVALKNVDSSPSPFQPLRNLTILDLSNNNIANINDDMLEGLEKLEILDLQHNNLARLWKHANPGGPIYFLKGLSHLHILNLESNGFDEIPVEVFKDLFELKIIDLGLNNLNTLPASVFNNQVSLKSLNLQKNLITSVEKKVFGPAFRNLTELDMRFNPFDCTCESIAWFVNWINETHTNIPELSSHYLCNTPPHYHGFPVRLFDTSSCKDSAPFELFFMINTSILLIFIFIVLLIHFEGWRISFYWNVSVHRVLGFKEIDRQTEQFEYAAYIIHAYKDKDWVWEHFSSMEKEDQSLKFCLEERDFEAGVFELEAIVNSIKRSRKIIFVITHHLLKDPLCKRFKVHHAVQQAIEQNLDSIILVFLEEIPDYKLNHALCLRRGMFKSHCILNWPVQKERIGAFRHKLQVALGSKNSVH
# Sequence of Toll-like receptor 5 (Homo sapiens) (O60602 whole entry): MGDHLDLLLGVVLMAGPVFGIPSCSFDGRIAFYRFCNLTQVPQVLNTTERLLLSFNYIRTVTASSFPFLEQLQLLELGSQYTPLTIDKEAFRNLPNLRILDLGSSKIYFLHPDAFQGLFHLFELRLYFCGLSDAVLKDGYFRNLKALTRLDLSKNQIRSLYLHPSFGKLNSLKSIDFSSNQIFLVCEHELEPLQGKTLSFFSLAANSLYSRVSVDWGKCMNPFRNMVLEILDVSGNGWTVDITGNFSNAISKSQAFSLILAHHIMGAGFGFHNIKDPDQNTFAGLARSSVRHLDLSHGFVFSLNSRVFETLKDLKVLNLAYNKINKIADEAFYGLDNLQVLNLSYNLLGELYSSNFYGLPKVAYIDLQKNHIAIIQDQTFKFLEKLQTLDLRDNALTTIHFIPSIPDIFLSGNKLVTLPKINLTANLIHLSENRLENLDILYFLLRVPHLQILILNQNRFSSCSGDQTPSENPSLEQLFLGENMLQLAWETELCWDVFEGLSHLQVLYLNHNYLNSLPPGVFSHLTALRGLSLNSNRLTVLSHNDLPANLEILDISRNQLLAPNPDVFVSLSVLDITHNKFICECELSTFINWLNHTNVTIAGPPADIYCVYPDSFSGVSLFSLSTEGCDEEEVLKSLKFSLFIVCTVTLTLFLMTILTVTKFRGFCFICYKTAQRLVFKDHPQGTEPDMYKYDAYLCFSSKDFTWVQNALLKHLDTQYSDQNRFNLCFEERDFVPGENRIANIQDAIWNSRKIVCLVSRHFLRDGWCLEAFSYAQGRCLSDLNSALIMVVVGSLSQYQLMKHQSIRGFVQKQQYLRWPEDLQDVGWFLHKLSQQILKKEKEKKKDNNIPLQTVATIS
# Sequence of Toll-like receptor 4 (Homo sapiens) (O00206 whole entry): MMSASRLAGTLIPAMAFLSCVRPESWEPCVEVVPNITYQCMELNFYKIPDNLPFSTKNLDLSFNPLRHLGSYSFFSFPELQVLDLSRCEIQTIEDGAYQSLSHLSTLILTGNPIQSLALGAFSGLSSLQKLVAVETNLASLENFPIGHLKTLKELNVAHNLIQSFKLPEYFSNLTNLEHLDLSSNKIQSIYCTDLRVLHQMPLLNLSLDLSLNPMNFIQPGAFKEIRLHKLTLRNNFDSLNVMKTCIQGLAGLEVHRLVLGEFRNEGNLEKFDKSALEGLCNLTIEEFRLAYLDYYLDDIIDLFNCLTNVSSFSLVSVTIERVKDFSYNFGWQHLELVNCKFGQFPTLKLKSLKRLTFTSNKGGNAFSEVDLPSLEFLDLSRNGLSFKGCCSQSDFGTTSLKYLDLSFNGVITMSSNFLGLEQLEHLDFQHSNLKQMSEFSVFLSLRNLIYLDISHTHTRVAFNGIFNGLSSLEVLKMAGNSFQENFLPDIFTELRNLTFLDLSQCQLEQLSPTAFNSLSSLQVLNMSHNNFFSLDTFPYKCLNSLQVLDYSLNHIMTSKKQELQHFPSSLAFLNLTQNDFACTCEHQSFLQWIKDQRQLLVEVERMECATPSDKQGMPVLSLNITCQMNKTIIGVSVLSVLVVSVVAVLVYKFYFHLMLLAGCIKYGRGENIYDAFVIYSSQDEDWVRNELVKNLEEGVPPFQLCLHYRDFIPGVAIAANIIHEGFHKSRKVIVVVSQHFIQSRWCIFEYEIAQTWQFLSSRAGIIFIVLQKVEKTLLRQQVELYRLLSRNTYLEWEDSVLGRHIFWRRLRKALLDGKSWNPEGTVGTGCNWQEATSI
smiles,measurement,setting,value
Cc1ncc(CO)c2c(Nc3ccccn3)c(NC(C)C)oc12,EC50,Toll-like receptor 8; hek293,Not Active
COc1ccc(Nc2oc3c(C)ncc(CO)c3c2Nc2ccccn2)cc1,EC50,Toll-like receptor 8; hek293,Not Active
c1ccc(CNc2c(-c3ccccc3)nc3ccccn23)cc1,Activity,[1],inactive
same,Activity,[2],inactive
same,Activity,[3],inactive
same,Activity,[4],inactive
same,Activity,[5],inactive
same,Activity,[6],inactive
c1ccc(CNc2c(-c3ccccc3)nc3cnccn23)cc1,Activity,[1],inactive
same,Activity,[2],inactive
same,Activity,[3],inactive
same,Activity,[4],inactive
same,Activity,[5],inactive
same,Activity,[6],inactive
c1ccc(-c2nc3ccccn3c2NC2CCCCC2)cc1,Activity,[1],inactive
same,Activity,[2],inactive
same,Activity,[3],inactive
same,Activity,[4],inactive
same,Activity,[5],inactive
same,Activity,[6],inactive
CCCCc1nc2c(N)nccn2c1Nc1ccc(OC)cc1,Activity,[1],inactive
same,Activity,[2],inactive
same,Activity,[3],inactive
same,Activity,[4],inactive
same,Activity,[5],inactive
same,Activity,[6],inactive
CCCC(C)Nc1oc2c(C)ncc(CO)c2c1Nc1ccccn1 (stereo unspecified),EC50,Toll-like receptor 8; read-out: EC50,9.01 µM
CCCCCNc1oc2c(C)ncc(CO)c2c1Nc1ccccc1,EC50,Toll-like receptor 8; read-out: EC50,2.25 µM
CC(C)(C)Nc1c(-c2ccncc2)nc2cnccn12,Activity,[1],inactive
same,Activity,[2],inactive
same,Activity,[3],inactive
same,Activity,[4],inactive
same,Activity,[5],inactive
same,Activity,[6],inactive
CC(C)(C)Nc1c(-c2ccccc2O)nc2ccccn12,Activity,[1],inactive
same,Activity,[2],inactive
same,Activity,[3],inactive
same,Activity,[4],inactive
same,Activity,[5],inactive
same,Activity,[6],inactive
CCCCCNc1oc2c(C)ncc(CO)c2c1Nc1cccc([N+](=O)[O-])c1,EC50,Toll-like receptor 8; read-out: EC50,0.85 µM
Oc1ccccc1-c1nc2cnccn2c1NC1CCCCC1,Activity,[1],inactive
same,Activity,[2],inactive
same,Activity,[3],inactive
same,Activity,[4],inactive
same,Activity,[5],inactive
same,Activity,[6],inactive
Cc1ncc(CO)c2c(Nc3cnccn3)c(NCc3ccccc3)oc12,EC50,Toll-like receptor 8; read-out: EC50,9.79 µM
CC(C)(C)Nc1c(-c2ccncc2)nc2ccccn12,Activity,[1],inactive
same,Activity,[2],inactive
same,Activity,[3],inactive
same,Activity,[4],inactive
same,Activity,[5],inactive
same,Activity,[6],inactive
c1ccc(-c2nc3cnccn3c2NC2CCCCC2)cc1,Activity,[1],inactive
same,Activity,[2],inactive
same,Activity,[3],inactive
same,Activity,[4],inactive
same,Activity,[5],inactive
same,Activity,[6],inactive
Cc1ncc(CO)c2c(Nc3ccccn3)c(NC(C)(C)C)oc12,EC50,Toll-like receptor 8; hek293,Not Active
Cc1ncc(CO)c2c(Nc3ccccn3)c(NCCC(=O)OC(C)(C)C)oc12,EC50,Toll-like receptor 8; read-out: EC50,7.64 µM
Cc1ncc(CO)c2c(Nc3ccccn3)c(N[C@@H](C)c3ccccc3)oc12,EC50,Toll-like receptor 8; read-out: EC50,4.27 µM
Cc1ncc(CO)c2c(Nc3ccccn3)c(NC3CCCCC3)oc12,EC50,Toll-like receptor 8; read-out: EC50,6.93 µM
Cc1ncc(CO)c2c(Nc3ccccn3)c(NCCN3CCOCC3)oc12,EC50,Toll-like receptor 8; hek293,Not Active
Cc1ncc(CO)c2c(Nc3cnccn3)c(NC(C)(C)C)oc12,EC50,Toll-like receptor 8; hek293,Not Active
CCCCCNc1oc2c(C)ncc(CO)c2c1Nc1cccc(F)c1,EC50,Toll-like receptor 8; read-out: EC50,0.37 µM
CCOP(=O)(CNc1oc2c(C)ncc(CO)c2c1Nc1ccccn1)OCC,EC50,Toll-like receptor 8; hek293,Not Active
CCOC(=O)CNc1oc2c(C)ncc(CO)c2c1Nc1ccccn1,EC50,Toll-like receptor 8; hek293,Not Active
Cc1ncc(CO)c2c(Nc3ccccn3)c(N)oc12,EC50,Toll-like receptor 8; hek293,Not Active
Cc1ncc(CO)c2c(Nc3cnccn3)c(NC3CCCCC3)oc12,EC50,Toll-like receptor 8; read-out: EC50,10.6 µM
Cc1ncc(CO)c2c(Nc3ccccn3)c(NC(C)(C)CC(C)(C)C)oc12,EC50,Toll-like receptor 8; hek293,Not Active
Cc1ncc(CO)c(-c2nc3ccccn3c2NC2CCCCC2)c1OCc1ccccc1,EC50,Toll-like receptor 8; hek293,Not Active
Cc1cccc(Cl)c1Nc1oc2c(C)ncc(CO)c2c1Nc1ccccn1,EC50,Toll-like receptor 8; hek293,Not Active
Cc1ncc(CO)c2c(Nc3ccccc3)c(NCc3ccccc3)oc12,EC50,Toll-like receptor 8; read-out: EC50,1.68 µM
Cc1ncc(CO)c2c(Nc3ccccn3)c(NCCCCCCNc3oc4c(C)ncc(CO)c4c3Nc3ccccn3)oc12,EC50,Toll-like receptor 8; read-out: EC50,3.37 µM

# — ChEMBL document CHEMBL2176888, “Structure-activity relationships in human Toll-like receptor 8-active 2,3-diamino-furo[2,3-c]pyridines” (J Med Chem, 2012)
